# Measured values taken from patent US12298318B2, “Targeting ligands for tau pathology” (Texas Children's Hospital, priority 2019, dated 2025).
# Columns and labels:
# MAO-B enzyme = molecular target: T1, MAO-B enzyme (Homo sapiens, UniProt P27338); conditions: brain; cited from earlier work
# T1 sequence (P27338 1-520): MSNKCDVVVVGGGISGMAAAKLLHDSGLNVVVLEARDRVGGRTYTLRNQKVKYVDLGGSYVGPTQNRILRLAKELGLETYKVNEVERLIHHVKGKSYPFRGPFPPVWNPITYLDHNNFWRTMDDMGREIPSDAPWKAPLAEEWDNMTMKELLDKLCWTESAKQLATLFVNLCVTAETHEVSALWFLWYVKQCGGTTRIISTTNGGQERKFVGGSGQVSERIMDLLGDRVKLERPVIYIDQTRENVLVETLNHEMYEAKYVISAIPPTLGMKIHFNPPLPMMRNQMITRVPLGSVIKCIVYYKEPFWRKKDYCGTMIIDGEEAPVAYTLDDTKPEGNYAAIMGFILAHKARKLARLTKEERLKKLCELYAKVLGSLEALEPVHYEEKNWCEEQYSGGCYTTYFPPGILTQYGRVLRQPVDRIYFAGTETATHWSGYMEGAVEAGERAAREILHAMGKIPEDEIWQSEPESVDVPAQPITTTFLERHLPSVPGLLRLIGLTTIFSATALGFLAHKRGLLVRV
# tetrameric VIM = tetrameric VIM (Homo sapiens, UniProt P08670); conditions: cited from earlier work
# Sequence of tetrameric VIM (P08670 whole entry): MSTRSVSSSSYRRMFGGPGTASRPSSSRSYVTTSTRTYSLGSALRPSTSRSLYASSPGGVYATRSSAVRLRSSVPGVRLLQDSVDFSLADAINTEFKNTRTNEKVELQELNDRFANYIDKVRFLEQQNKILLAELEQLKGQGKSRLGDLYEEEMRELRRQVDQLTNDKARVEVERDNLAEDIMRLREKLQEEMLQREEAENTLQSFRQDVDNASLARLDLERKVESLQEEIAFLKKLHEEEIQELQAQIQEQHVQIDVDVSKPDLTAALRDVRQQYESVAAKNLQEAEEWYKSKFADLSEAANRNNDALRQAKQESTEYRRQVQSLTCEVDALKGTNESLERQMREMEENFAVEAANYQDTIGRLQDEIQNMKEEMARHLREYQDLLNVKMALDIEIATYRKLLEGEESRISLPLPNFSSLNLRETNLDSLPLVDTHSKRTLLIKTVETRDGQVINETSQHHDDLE
# [1] = tested on: hyperphosphorylated SH SY5Y cells; assay: Saturation binding of Cy5-labeled aptamer, apparent Kd, SH-SY5Y cells; design: species or system human; conditions: read-out: apparent equilibrium dissociation constant (Kdapp)
# Method: (§1) The apparent equilibrium dissociation constants (Kdapp) were measured by serial dilution of aptamer solutions with target hyperphosphorylated, non-target differentiated, and undifferentiated SH-SY5Y cells. The affinity of these aptamers was also tested with another immortal neural progenitor stem cell line, ReN-VM, in hyperphosphorylative and non-hyperphosphorylative conditions. The Kdapp for Tau_1 (SEQ ID NO: 5; DONGYBM) and Tau_3 (SEQ ID NO: 6; MUSQD) with hyperphosphorylated SH SY5Y cells is 0.167±0.015 nM and 0.194±0.032 nM; and for the ReN-VM cells 318.15±46.2 nM and 234.24±38.6 nM, respectively (FIG. 3).
# (§2) Hyperphosphorylation. Hyperphosphorylation was induced in SH-SY5Y cells by addition of 30 nM OA (Sigma Aldrich, St. Louis, MO, #459620) in growth medium with 30 μM RA for 24 h. ReNcell VM were hyperphosphorylated using 100 nM QA (SigmaAldrich, St. Louis, MO, #P63204) in culture media for 24 h.
# (§3) Aptamer binding studies. Aptamer binding studies were conducted with undifferentiated, differentiated, and hyperphosphorylated SH SY5Y and ReN cell VM grown in 96-wells seeded at 10000 per well. […]
# [2] = tested on: hyperphosphorylative SH-SY5Y cells; assay: Binding studies with Cy5-labeled aptamer (cell staining); format: cell-based, human; conditions: 50 nM, 2 h at 4° C. (FIG. 2C)
# Text: Negative selection eliminated certain sequences that were not specific to the hyperphosphorylative state or have a propensity for hepatocyte uptake. However, the relative abundance of key sequences increased steadily throughout the whole process. The 23 most abundant sequences at round 26 were identified, and their abundance throughout the SELEX process as calculated using AptaAligner is shown in FIG. 2B. The sequence Tau_1 (SEQ ID NO: 5; DONGYBM) was the most prevalent at cycle 26, representing 20.6% of the thioaptamers present. A single base difference from this sequence, Tau_3 (SEQ ID NO: 6; MUSQD), was the second most represented sequence (10.4%). […] The secondary structure of the aptamers Tau_1 (SEQ ID NO: 5; DONGYBM) and Tau_3 (SEQ ID NO: 6; MUSQD) calculated using mfold is shown in FIG. 2D. The sequences present at the final round were grouped by hierarchical clustering and sequence homology using the multiple sequence alignment code MAFFT showing five distinct families, which were also presented as a cladogram (using the Clustal Omega) showing the common ancestry between these five aptamers families (FIG. 2E).
# Immunocytochemistry. […]
# [3] = tested on: OA treated differentiated SH-SY5Y cells; assay: Cell-SELEX sequence abundance by next-generation sequencing; design: species or system human; conditions: SELEX cycle 26
# Method: Aptamer screening was performed using the cell-SELEX approach on differentiated SH-SY5Y cells in a hyperphosphorylative state. FIGS. 2A-2E describe how cell-SELEX was used to identify biomarkers of onset the of AD. OA treated differentiated SH-SY5Y cells were used as a surrogate for hyperphosphorylative neurons to screen DNA aptamers that specifically recognize the differences between the surfaces of treated and untreated cells, using the cell-SELEX methodology modified to capture membrane binding aptamers. A total of 26 cell SELEX cycles were performed. […]
# Negative selection eliminated certain sequences that were not specific to the hyperphosphorylative state or have a propensity for hepatocyte uptake. […] The 23 most abundant sequences at round 26 were identified, and their abundance throughout the SELEX process as calculated using AptaAligner is shown in FIG. 2B. […] The secondary structure of the aptamers Tau_1 (SEQ ID NO: 5; DONGYBM) and Tau_3 (SEQ ID NO: 6; MUSQD) calculated using mfold is shown in FIG. 2D. […]
# Next-Generation Sequencing (NGS). […] Equimolar quantities of the recovered TA sequences over the range were pooled together and sequenced by Next-Gen DNA sequencing using Ion318 chip (ThermoFisher, Waltham, MA). […]
# [4] = tested on: hyperphosphorylated SH-SY5Y cells; assay: Aptamer-based pulldown and mass spectrometry target identification; design: species or system human; conditions: pulldown / immunoprecipitation, mass-spectrometry
# Method: To characterize the binding target of the aptamers, an aptamer-based pulldown assay was performed, along with aptamer-based immunoprecipitation, followed by mass-spectrometry. The assay was performed for both Tau_1 (SEQ ID NO: 5; DONGYBM) and Tau_3 (SEQ ID NO: 6; MUSQD) aptamers. […] The surface expression of Keratin 6a, 6b was similar on wild-type and transgenic tissue sections, whereas the VIM expression was higher in the Tg mice (FIG. 6C).
# Target Identification. The protein targets of Tau_1 (SEQ ID NO: 5; DONGYBM), Tau_3 (SEQ ID NO: 6; MUSQD), Tau-4, and Tau-5 were identified by affinity-pull down using the selected aptamers as the capturing reagent followed by mass-spectroscopy. A scrambled DNA sequence, R2, was used as a control. The hyperphosphorylated SH-SY5Y cells, at 90-95% confluence, were washed with cold PBS buffer and incubated with biotinylated selected aptamers with […] each at 4° C. in PBS, respectively. After 2 hours of gentle agitation, SH-SY5Y cells were cross-linked with 1% formaldehyde for 10 min at rt. The formaldehyde cross-linking was quenched with glycine. Cells were scraped from the plate, washed, lysed with lysing buffer (Thermofisher Scientific, #87787), and treated with protease inhibitor mixture. The lysates were freeze-thawed for 30 min on ice and cleared by centrifuging at 10,000×g for 2 min at 4° C. […] Each sample was analyzed in triplicate. […]
# ReN-VM cells = assay: Saturation binding of Cy5-labeled aptamer, apparent Kd, ReN-VM cells; conditions: read-out: apparent equilibrium dissociation constant (Kdapp)
# Method: as §1, §2, §3
Compound,off-target binding (MAO-B enzyme),binding site on vimentin (tetrameric VIM),Kd [1],binding of Cy5-labeled aptamer to cells [2],fraction of the thioaptamers present (abundance) [3],possible binding targets by abundance score ranking [4],Kd (ReN-VM cells)
Fc1ccc(-c2ccc3c(c2)[nH]c2ccncc23)cn1 [Flortaucipir],binds the MAO-B enzyme in the brain,,,,,,
CC1=C(CO)C(=O)O[C@@H]([C@@H](C)[C@H]2CC[C@H]3[C@@H]4C[C@H]5O[C@]56[C@@H](O)C=CC(=O)[C@]6(C)[C@H]4CC[C@]23C)C1 [Withaferin A],,binds the conserved cysteine 382 residue on tetrameric VIM,,,,,
"Tau_1: DNA thioaptamer CCCCCCACGGTCTCCGCTCCACAAGTTCAC (DNA, backbone and methylation of C not given here; further chemistry not fully specified)",,,0.167 ± 0.015 nM,elevated binding levels with the hyperphosphorylative cells,20.6%,"keratin 6a, Keratin 6b, and VIM",318 ± 46.2 nM
Tau_3: DNA thioaptamer CCCCCCACGGTCTCCGCTCCACAAGTCCAC,,,0.194 ± 0.032 nM,elevated binding levels with the hyperphosphorylative cells,10.4%,"keratin 6a, Keratin 6b, and VIM",234 ± 38.6 nM
